According to patent publication US11458123B2 (Arvinas, Inc., priority 2016, dated 2022):

Test system: tau protein
Test: Tau protein in vitro degradation assay (Western blot, Tau-13 antibody)
Assay type: cell-based, human
Conditions: SK-N-SH cells, 72 hours of incubation; for Degradation activity* (highest amount of degradation observed at any dosage; tau protein remaining) / Degradation activity (tau protein remaining; highest amount of degradation observed at any dosage): tested at 300 nM, 100 nM, 33 nM and 11 nM, Western blot, Tau-13 antibody; for Activity* (highest amount of degradation observed at any dosage, as tau protein remaining): tested at 1000 nM, 300 nM and 100 nM
Summary of the method: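 SK-N-SH cells, seeded ≥18 h beforehand, were incubated 72 h with tau PROTACs at 1000, 300 and 100 nM or at 300, 100, 33 and 11 nM. Lysates in protease-inhibitor buffer were resolved by SDS-PAGE; tau quantified by Western blot with Tau-13 antibody recognising all human tau forms.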

SMILES | Degradation activity* (highest amount of degradation observed at any dosage; tau protein remaining) | further results
Cn1c2ccncc2c2ccc(-c3ccc(OC4CN(CCCCCOCCCCCOc5ccc6c(c5)C(=O)N(C5CCC(=O)NC5=O)C6=O)C4)nc3)cc21 (centres unmarked) [Compound 106, 2-(2,6-dioxopiperidin-3-yl)-5-((5-((5-(3-((5-(5-methyl-5H-pyrido[4,3-b]indol-7-yl)pyridin-2-yl)oxy)azetidin-1-yl)pentyl)oxy)pentyl)oxy)isoindoline-1,3-dione] | B (≤80% and >50% tau protein remaining after 72 hours of incubation with the test compound) | 
Cn1c2ccncc2c2ccc(-c3ccc(OCCCCCOCCCCCC4CCN(c5ccc6c(c5)C(=O)N(C5CCC(=O)NC5=O)C6=O)CC4)nc3)cc21 (centres unmarked) [Compound 75, 2-(2,6-dioxopiperidin-3-yl)-5-(4-(5-((5-((5-(5-methyl-5H-pyrido[4,3-b]indol-7-yl)pyridin-2-yl)oxy)pentyl)oxy)pentyl)piperidin-1-yl)isoindoline-1,3-dione] | C (>80% tau protein remaining after 72 hours of incubation with the test compound) | 
Cn1c2ccncc2c2ccc(-c3ccc(O[C@H]4C[C@H](OC5CCN(c6cccc(CCCOc7ccc8c(c7)C(=O)N(C7CCC(=O)NC7=O)C8=O)c6)CC5)C4)nc3)cc21 (some centres unmarked) [Compound 205, 2-(2,6-dioxopiperidin-3-yl)-5-(3-(3-(4-((1r,3r)-3-((5-(5-methyl-5H-pyrido[4,3-b]indol-7-yl)pyridin-2-yl)oxy)cyclobutoxy)piperidin-1-yl)phenyl)propoxy)isoindoline-1,3-dione] |  | Degradation activity (tau protein remaining; highest amount of degradation observed at any dosage): A (≤50% tau protein remaining after 72 hours of incubation with the test compound)
Cn1c2ccncc2c2ccc(-c3ccc(O[C@H]4C[C@H](Oc5cnc(C#CCCCCOc6ccc7c(c6)C(=O)N(C6CCC(=O)NC6=O)C7=O)nc5)C4)nc3)cc21 (some centres unmarked) [Compound 141, 2-(2,6-dioxopiperidin-3-yl)-5-((6-(5-((1r,3r)-3-((5-(5-methyl-5H-pyrido[4,3-b]indol-7-yl)pyridin-2-yl)oxy)cyclobutoxy)pyrimidin-2-yl)hex-5-yn-1-yl)oxy)isoindoline-1,3-dione] | C (>80% tau protein remaining after 72 hours of incubation with the test compound) | 
CN(C)c1ccc(-c2ccc3cc(OCC(O)COCCOCCOCCNc4cccc5c4C(=O)N(C4CCC(=O)NC4=O)C5=O)ccc3n2)cc1 (centres unmarked) [Compound 47, 4-(2-(2-(2-(3-(2-(4-(dimethylamino)phenyl)quinolin-6-yloxy)-2-hydroxypropoxy)ethoxy)ethoxy)ethylamino)-2-(2,6-dioxopiperidin-3-yl)isodoline-1,3-dione] |  | Activity* (highest amount of degradation observed at any dosage, as tau protein remaining): C (>80% tau protein remaining after 72 hours of incubation with the test compound)
Cn1c2ccncc2c2ccc(-c3ccc(O[C@H]4C[C@H](OCCCCCOCCC5CN(c6ccc7c(c6)C(=O)N(C6CCC(=O)NC6=O)C7=O)C5)C4)nc3)cc21 (some centres unmarked) [Compound 181, 2-(2,6-dioxopiperidin-3-yl)-5-(3-(2-((5-((1r,3r)-3-((5-(5-methyl-5H-pyrido[4,3-b]indol-7-yl)pyridin-2-yl)oxy)cyclobutoxy)pentyl)oxy)ethyl)azetidin-1-yl)isoindoline-1,3-dione] |  | Degradation activity (tau protein remaining; highest amount of degradation observed at any dosage): B (≤80% and >50% tau protein remaining after 72 hours of incubation with the test compound)
Cn1c2ccncc2c2ccc(-c3ccc(O[C@H]4C[C@H](OCCCCCCN5CCN(c6ccc7c(c6)C(=O)N(C6CCC(=O)NC6=O)C7=O)CC5)C4)nc3)cc21 (some centres unmarked) [Compound 78, 2-(2,6-dioxopiperidin-3-yl)-5-(4-(6-((1r,3r)-3-((5-(5-methyl-5H-pyrido[4,3-b]indol-7-yl)pyridin-2-yl)oxy)cyclobutoxy)hexyl)piperazin-1-yl)isoindoline-1,3-dione] | C (>80% tau protein remaining after 72 hours of incubation with the test compound) | 
Cn1c2ccncc2c2ccc(-c3cnc(OCCOCCOCCOCCOCCOc4ccc5c(c4)C(=O)N(C4CCC(=O)NC4=O)C5=O)c(Cl)c3)cc21 (centres unmarked) [Compound 92, 5-((14-((3-chloro-5-(5-methyl-5H-pyrido[4,3-b]indol-7-yl)pyridin-2-yl)oxy)-3,6,9,12-tetraoxatetradecyl)oxy)-2-(2,6-dioxopiperidin-3-yl)isoindoline-1,3-dione] | A (≤50% tau protein remaining after 72 hours of incubation with the test compound) | 
Cn1c2ccncc2c2ccc(-c3ccc(OCCOCCOCCOCCOCCOCCOc4ccc5c(c4)C(=O)N(C4CCC(=O)NC4=O)C5=O)nc3)cc21 (centres unmarked) [Compound 131, 2-(2,6-dioxopiperidin-3-yl)-5-((17-((5-(5-methyl-5H-pyrido[4,3-b]indol-7-yl)pyridin-2-yl)oxy)-3,6,9,12,15-pentaoxaheptadecyl)oxy)isoindoline-1,3-dione] | A (≤50% tau protein remaining after 72 hours of incubation with the test compound) | 
Cn1c2ccncc2c2ccc(-c3ccc(O[C@H]4C[C@H](Oc5ccc(CCCCCCOc6ccc7c(c6)C(=O)N(C6CCC(=O)NC6=O)C7=O)nn5)C4)nc3)cc21 (some centres unmarked) [Compound 149, 2-(2,6-dioxopiperidin-3-yl)-5-((6-(6-((1r,3r)-3-((5-(5-methyl-5H-pyrido[4,3-b]indol-7-yl)pyridin-2-yl)oxy)cyclobutoxy)pyridazin-3-yl)hexyl)oxy)isoindoline-1,3-dione] | B (≤80% and >50% tau protein remaining after 72 hours of incubation with the test compound) | 
Cn1c2ccncc2c2ccc(-c3ccc(OC4CC5(C4)CN(C(=O)COCCCOC4CN(c6ccc7c(c6)C(=O)N(C6CCC(=O)NC6=O)C7=O)C4)C5)nc3)cc21 (centres unmarked) [Compound 193, 2-(2,6-dioxopiperidin-3-yl)-5-(3-(3-(2-(6-((5-(5-methyl-5H-pyrido[4,3-b]indol-7-yl)pyridin-2-yl)oxy)-2-azaspiro[3.3]heptan-2-yl)-2-oxoethoxy)propoxy)azetidin-1-yl)isoindoline-1,3-dione] |  | Degradation activity (tau protein remaining; highest amount of degradation observed at any dosage): B (≤80% and >50% tau protein remaining after 72 hours of incubation with the test compound)
Cn1c2ccncc2c2ccc(-c3ccc(C(F)(F)COCCCCCOCCCCCCOc4ccc5c(c4)C(=O)N(C4CCC(=O)NC4=O)C5=O)nc3)cc21 (centres unmarked) [Compound 93, 5-((6-((5-(2,2-difluoro-2-(5-(5-methyl-5H-pyrido[4,3-b]indol-7-yl)pyridin-2-yl)ethoxy)pentyl)oxy)hexyl)oxy)-2-(2,6-dioxopiperidin-3-yl)isoindoline-1,3-dione] | C (>80% tau protein remaining after 72 hours of incubation with the test compound) | 
Cc1ncsc1-c1ccc(CNC(=O)[C@@H]2C[C@@H](O)CN2C(=O)[C@@H](NC(=O)COCCOCCOCCOCCCOc2ccc3nc(-c4ccc(N(C)C)cc4)ccc3c2)C(C)(C)C)cc1 [Compound 9, (2S,4R)-1-((S)-2-tert-butyl-18-(2-(4-(dimethylamino)phenyl)quinolin-6-yloxy)-4-oxo-6,9,12,15-tetraoxa-3-azaoctadecane)-4-hydroxy-N-(4-(4-methylthiazol-5-yl)benzyl)pyrrolidine-2-carboxamide] |  | Activity* (highest amount of degradation observed at any dosage, as tau protein remaining): C (>80% tau protein remaining after 72 hours of incubation with the test compound)
O=C1CCC(N2C(=O)c3ccc(N4CCN(CCN5CCC(O[C@H]6C[C@H](Oc7ccc(-c8ccc9c(c8)[nH]c8ccncc89)cn7)C6)CC5)CC4)cc3C2=O)C(=O)N1 (some centres unmarked) [Compound 66, 5-(4-(2-(4-((1r,3r)-3-((5-(5H-pyrido[4,3-b]indol-7-yl)pyridin-2-yl)oxy)cyclobutoxy)piperidin-1-yl)ethyl)piperazin-1-yl)-2-(2,6-dioxopiperidin-3-yl)isoindoline-1,3-dione] | C (>80% tau protein remaining after 72 hours of incubation with the test compound) | 
Cn1c2ccncc2c2ccc(-c3ccc(O[C@H]4C[C@H](N(C)C5CC6(C5)CN(CCCCCOc5ccc7c(c5)C(=O)N(C5CCC(=O)NC5=O)C7=O)C6)C4)nc3)cc21 (some centres unmarked) [Compound 126, 2-(2,6-dioxopiperidin-3-yl)-5-((5-(6-(methyl((1r,3r)-3-((5-(5-methyl-5H-pyrido[4,3-b]indol-7-yl)pyridin-2-yl)oxy)cyclobutyl)amino)-2-azaspiro[3.3]heptan-2-yl)pentyl)oxy)isoindoline-1,3-dione] | B (≤80% and >50% tau protein remaining after 72 hours of incubation with the test compound) | 
Cn1c2cc(-c3ccc(OCCOCCOCCOCCOCCOc4ccc5c(c4)C(=O)N(C4CCC(=O)NC4=O)C5=O)nc3)ccc2c2cncc(Cl)c21 (centres unmarked) [Compound 195, 5-((14-((5-(4-chloro-5-methyl-5H-pyrido[4,3-b]indol-7-yl)pyridin-2-yl)oxy)-3,6,9,12-tetraoxatetradecyl)oxy)-2-(2,6-dioxopiperidin-3-yl)isoindoline-1,3-dione] |  | Degradation activity (tau protein remaining; highest amount of degradation observed at any dosage): A (≤50% tau protein remaining after 72 hours of incubation with the test compound)
Cn1c2ccncc2c2ccc(-c3ccc(O[C@H]4C[C@H](Oc5ccc(CCCOC6CN(c7ccc8c(c7)C(=O)N(C7CCC(=O)NC7=O)C8=O)C6)nc5)C4)nc3)cc21 (some centres unmarked) [Compound 156, 2-(2,6-dioxopiperidin-3-yl)-5-(3-(3-(5-((1r,3r)-3-((5-(5-methyl-5H-pyrido[4,3-b]indol-7-yl)pyridin-2-yl)oxy)cyclobutoxy)pyridin-2-yl)propoxy)azetidin-1-yl)isoindoline-1,3-dione] | C (>80% tau protein remaining after 72 hours of incubation with the test compound) | 
